Source: patent US7851474B2, “Dipiperazinyl ketones and related analogues” (Neurogen Corporation, priority 2005, dated 2010)

biological target: T1, chimeric human H3 receptor (Homo sapiens, UniProt Q9Y5N1, E19D); assay: Chimeric human H3 receptor GTP binding assay (agonist-stimulated GTP-gamma35S binding, Example 7); type: biochemical; conditions: Table II; assay of Example 7; "*" in Ki; read-out: Ki
T1 construct: made in house; host or cells: Sf9 insect cells (baculovirus infection); P2 membrane preparation
Procedure, shortened: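 Sf9 membranes co-expressing the chimeric receptor and heterotrimeric G-protein subunits, 35 μg protein per tube, in pH 7.4 Tris buffer with 10 μM GDP. Test compounds at 10^−10 to 10^−6 M with 1 μM histamine, 60 min at room temperature. Filter-bound GTP-gamma^35S read by scintillation; IC50 from non-linear regression of dose-response curves.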

T1 sequence (Q9Y5N1 with tags, fused parts or gaps E19D): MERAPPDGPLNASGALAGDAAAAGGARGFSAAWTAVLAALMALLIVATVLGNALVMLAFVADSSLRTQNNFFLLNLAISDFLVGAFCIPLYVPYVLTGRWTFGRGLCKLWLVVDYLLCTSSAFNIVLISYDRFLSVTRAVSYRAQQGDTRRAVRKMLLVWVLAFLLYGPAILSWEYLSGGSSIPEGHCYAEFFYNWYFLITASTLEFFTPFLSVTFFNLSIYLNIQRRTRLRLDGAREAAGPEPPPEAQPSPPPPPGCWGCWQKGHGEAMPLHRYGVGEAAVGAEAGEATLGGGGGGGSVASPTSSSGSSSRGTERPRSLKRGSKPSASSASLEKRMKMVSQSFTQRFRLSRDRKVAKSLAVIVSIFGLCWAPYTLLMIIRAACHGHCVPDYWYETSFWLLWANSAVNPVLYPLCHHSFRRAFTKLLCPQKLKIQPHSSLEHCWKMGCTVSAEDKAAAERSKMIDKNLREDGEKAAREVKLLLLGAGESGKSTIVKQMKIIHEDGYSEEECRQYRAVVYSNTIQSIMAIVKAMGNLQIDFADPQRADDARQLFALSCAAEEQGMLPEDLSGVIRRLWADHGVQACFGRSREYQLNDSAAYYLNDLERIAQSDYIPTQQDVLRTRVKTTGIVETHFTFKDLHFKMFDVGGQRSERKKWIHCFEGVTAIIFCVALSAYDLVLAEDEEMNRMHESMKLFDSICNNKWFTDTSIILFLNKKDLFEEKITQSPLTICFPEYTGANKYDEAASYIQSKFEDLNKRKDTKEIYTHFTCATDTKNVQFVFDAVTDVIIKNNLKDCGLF

| SMILES | Ki [µM] |
| --- | --- |
| COCCN(C(=O)c1ccc(N2CCN(CC(=O)N3CCN(C4CCC4)CC3)CC2)cc1)C(C)C [Compound 1130, 4-{4-[2-(4-cyclobutylpiperazin-1-yl)-2-oxoethyl]piperazin-1-yl}-N-isopropyl-N-(2-methoxyethyl)benzamide] | < 1 |
| O=C(NCC1CC1)c1ccc(N2CCN(CC(=O)N3CCN(C4CCC4)CC3)CC2)cc1 [Compound 1133, 4-{4-[2-(4-cyclobutylpiperazin-1-yl)-2-oxoethyl]piperazin-1-yl}-N-(cyclopropylmethyl) benzamide] | < 1 |
| CC(C)CNC(=O)c1ccc(N2CCN(CC(=O)N3CCN(C4CCC4)CC3)CC2)cc1 [Compound 1134, 4-{4-[2-(4-cyclobutylpiperazin-1-yl)-2-oxoethyl]piperazin-1-yl}-N-isobutylbenzamide] | < 1 |
| CC(C)CCNC(=O)c1ccc(N2CCN(CC(=O)N3CCN(C4CCC4)CC3)CC2)cc1 [Compound 1136, 4-{4-[2-(4-cyclobutylpiperazin-1-yl)-2-oxoethyl]piperazin-1-yl}-N-(3-methylbutyl)benzamide] | < 1 |

Second part, the molecule after the results:

| Ki [µM] | SMILES |
| --- | --- |
| < 1 | CCN(C(=O)c1ccc(N2CCN(CC(=O)N3CCN(C4CCC4)CC3)CC2)cc1)C1CCCCC1 [Compound 1129, 4-{4-[2-(4-cyclobutylpiperazin-1-yl)-2-oxoethyl]piperazin-1-yl}-N-cyclohexyl-N-ethylbenzamide] |
| < 1 | CCC(C)CNC(=O)c1ccc(N2CCN(CC(=O)N3CCN(C4CCC4)CC3)CC2)cc1 (stereo not shown) [Compound 1131, 4-{4-[2-(4-cyclobutylpiperazin-1-yl)-2-oxoethyl]piperazin-1-yl}-N-(2-methylbutyl)benzamide] |
| < 1 | CCCNC(=O)c1ccc(N2CCN(CC(=O)N3CCN(C4CCC4)CC3)CC2)cc1 [Compound 1132, 4-{4-[2-(4-cyclobutylpiperazin-1-yl)-2-oxoethyl]piperazin-1-yl}-N-propylbenzamide] |
| < 1 | CCCCCNC(=O)c1ccc(N2CCN(CC(=O)N3CCN(C4CCC4)CC3)CC2)cc1 [Compound 1135, 4-{4-[2-(4-cyclobutylpiperazin-1-yl)-2-oxoethyl]piperazin-1-yl}-N-pentylbenzamide] |
| < 1 | O=C(NCC(F)(F)F)c1ccc(N2CCN(CC(=O)N3CCN(C4CCC4)CC3)CC2)cc1 [Compound 1137, 4-{4-[2-(4-cyclobutylpiperazin-1-yl)-2-oxoethyl]piperazin-1-yl}-N-(2,2,2-trifluoroethyl)benzamide] |

same assay, conditions: assay of Example 7; "*" in Ki of Table II; read-out: Ki

| SMILES | Ki [µM] |
| --- | --- |
| O=C(NC1CC1)c1ccc(N2CCN(CC(=O)N3CCN(C4CCC4)CC3)CC2)cc1 [Compound 1138, 4-{4-[2-(4-cyclobutylpiperazin-1-yl)-2-oxoethyl]piperazin-1-yl}-N-cyclopropylbenzamide] | < 1 |
| O=C(NC1CCCCC1)c1ccc(N2CCN(CC(=O)N3CCN(C4CCC4)CC3)CC2)cc1 [Compound 1139, 4-{4-[2-(4-cyclobutylpiperazin-1-yl)-2-oxoethyl]piperazin-1-yl}-N-cyclohexylbenzamide] | < 1 |
| CC(C)NC(=O)c1ccc(N2CCN(CC(=O)N3CCN(C4CCC4)CC3)CC2)cc1 [Compound 1140, 4-{4-[2-(4-cyclobutylpiperazin-1-yl)-2-oxoethyl]piperazin-1-yl}-N-isopropylbenzamide] | < 1 |
| O=C(NC1CCCC1)c1ccc(N2CCN(CC(=O)N3CCN(C4CCC4)CC3)CC2)cc1 [Compound 1141, 4-{4-[2-(4-cyclobutylpiperazin-1-yl)-2-oxoethyl]piperazin-1-yl}-N-cyclopentylbenzamide] | < 1 |
| O=C(NCC1CCCCC1)c1ccc(N2CCN(CC(=O)N3CCN(C4CCC4)CC3)CC2)cc1 [Compound 1144, 4-{4-[2-(4-cyclobutylpiperazin-1-yl)-2-oxoethyl]piperazin-1-yl}-N-(cyclohexylmethyl) benzamide] | < 1 |
| CC(C)(C)CNC(=O)c1ccc(N2CCN(CC(=O)N3CCN(C4CCC4)CC3)CC2)cc1 [Compound 1145, 4-{4-[2-(4-cyclobutylpiperazin-1-yl)-2-oxoethyl]piperazin-1-yl}-N-(2,2-dimethylpropyl) benzamide] | < 1 |
| N#Cc1ccc(N2CCN(CC(=O)N3CCN(C4CCCCC4)CC3)CC2)cc1 [Compound 1147, 4-{4-[2-(4-cyclohexylpiperazin-1-yl)-2-oxoethyl]piperazin-1-yl}benzonitrile] | < 1 |
| CC(C)N1CCN(C(=O)CN2CCN(c3ccc(C#N)cc3)CC2)CC1 [Compound 1149, 4-{4-[2-(4-isopropylpiperazin-1-yl)-2-oxoethyl]piperazin-1-yl}benzonitrile] | < 1 |
| CCC(C)N1CCN(C(=O)CN2CCN(c3ccc(C#N)cc3)CC2)CC1 (stereo not shown) [Compound 1150, 4-{4-[2-(4-sec-butylpiperazin-1-yl)-2-oxoethyl]piperazin-1-yl}benzonitrile] | < 1 |
| O=C1OCc2cc(N3CCN(CC(=O)N4CCN(C5CCC5)CC4)CC3)ccc21 [Compound 1156, 5-{4-[2-(4-cyclobutylpiperazin-1-yl)-2-oxoethyl]piperazin-1-yl}-2-benzofuran-1(3H)-one] | < 1 |
| O=C1CCc2cc(N3CCN(CC(=O)N4CCN(C5CCC5)CC4)CC3)ccc21 [Compound 1157, 5-{4-[2-(4-cyclobutylpiperazin-1-yl)-2-oxoethyl]piperazin-1-yl}indan-1-one] | < 1 |

The next lines start with the values.

| Ki [µM] | SMILES |
| --- | --- |
| < 1 | CCCC(C)NC(=O)c1ccc(N2CCN(CC(=O)N3CCN(C4CCC4)CC3)CC2)cc1 (stereo not shown) [Compound 1142, 4-{4-[2-(4-cyclobutylpiperazin-1-yl)-2-oxoethyl]piperazin-1-yl}-N-(1-methylbutyl)benzamide] |
| < 1 | O=C(NC1CCCCCC1)c1ccc(N2CCN(CC(=O)N3CCN(C4CCC4)CC3)CC2)cc1 [Compound 1143, 4-{4-[2-(4-cyclobutylpiperazin-1-yl)-2-oxoethyl]piperazin-1-yl}-N-cycloheptylbenzamide] |
| < 1 | CCC(CC)CNC(=O)c1ccc(N2CCN(CC(=O)N3CCN(C4CCC4)CC3)CC2)cc1 [Compound 1146, 4-{4-[2-(4-cyclobutylpiperazin-1-yl)-2-oxoethyl]piperazin-1-yl}-N-(2-ethylbutyl)benzamide] |
| < 1 | N#Cc1ccc(N2CCN(CC(=O)N3CCN(C4CCCC4)CC3)CC2)cc1 [Compound 1148, 4-{4-[2-(4-cyclopentylpiperazin-1-yl)-2-oxoethyl]piperazin-1-yl}benzonitrile] |
| < 1 | CC(C)(C)c1ccc(C(=O)NC2CCN(CC(=O)N3CCN(C4CCC4)CC3)C2)cc1 (stereo not shown) [Compound 1152, 4-tert-butyl-N-{1-[2-(4-cyclobutylpiperazin-1-yl)-2-oxoethyl]pyrrolidin-3-yl}benzamide] |
| < 1 | O=C(CN1CCN(c2ccc(-c3cncnc3)cc2)CC1)N1CCN(C2CCC2)CC1 [Compound 1154, 5-(4-{4-[2-(4-cyclobutylpiperazin-1-yl)-2-oxoethyl]piperazin-1-yl}phenyl)pyrimidine] |
| < 1 | CN1Cc2cc(N3CCN(CC(=O)N4CCN(C5CCC5)CC4)CC3)ccc2C1=O [Compound 1155, 5-{4-[2-(4-cyclobutylpiperazin-1-yl)-2-oxoethyl]piperazin-1-yl}-2-methylisoindolin-1-one] |
| < 1 | N#Cc1cnc(N2CCN(CC(=O)N3CCN(C4CCC4)CC3)CC2)cn1 [Compound 1158, 5-{4-[2-(4-cyclobutylpiperazin-1-yl)-2-oxoethyl]piperazin-1-yl}pyrazine-2-carbonitrile] |
